Data from ChEMBL document CHEMBL4732170, “Discovery of Small-Molecule Antagonists of the PWWP Domain of NSD2” (J Med Chem, 2021).
Activity calls are given as the source filed them. The rule behind the calls is not given here.

Tests used:
[1] = target: T1, Histone-lysine N-methyltransferase NSD2 (Homo sapiens) (UniProt O96028); conditions: filed as antagonist, dose 400.0 µM
T1 sequence (whole entry): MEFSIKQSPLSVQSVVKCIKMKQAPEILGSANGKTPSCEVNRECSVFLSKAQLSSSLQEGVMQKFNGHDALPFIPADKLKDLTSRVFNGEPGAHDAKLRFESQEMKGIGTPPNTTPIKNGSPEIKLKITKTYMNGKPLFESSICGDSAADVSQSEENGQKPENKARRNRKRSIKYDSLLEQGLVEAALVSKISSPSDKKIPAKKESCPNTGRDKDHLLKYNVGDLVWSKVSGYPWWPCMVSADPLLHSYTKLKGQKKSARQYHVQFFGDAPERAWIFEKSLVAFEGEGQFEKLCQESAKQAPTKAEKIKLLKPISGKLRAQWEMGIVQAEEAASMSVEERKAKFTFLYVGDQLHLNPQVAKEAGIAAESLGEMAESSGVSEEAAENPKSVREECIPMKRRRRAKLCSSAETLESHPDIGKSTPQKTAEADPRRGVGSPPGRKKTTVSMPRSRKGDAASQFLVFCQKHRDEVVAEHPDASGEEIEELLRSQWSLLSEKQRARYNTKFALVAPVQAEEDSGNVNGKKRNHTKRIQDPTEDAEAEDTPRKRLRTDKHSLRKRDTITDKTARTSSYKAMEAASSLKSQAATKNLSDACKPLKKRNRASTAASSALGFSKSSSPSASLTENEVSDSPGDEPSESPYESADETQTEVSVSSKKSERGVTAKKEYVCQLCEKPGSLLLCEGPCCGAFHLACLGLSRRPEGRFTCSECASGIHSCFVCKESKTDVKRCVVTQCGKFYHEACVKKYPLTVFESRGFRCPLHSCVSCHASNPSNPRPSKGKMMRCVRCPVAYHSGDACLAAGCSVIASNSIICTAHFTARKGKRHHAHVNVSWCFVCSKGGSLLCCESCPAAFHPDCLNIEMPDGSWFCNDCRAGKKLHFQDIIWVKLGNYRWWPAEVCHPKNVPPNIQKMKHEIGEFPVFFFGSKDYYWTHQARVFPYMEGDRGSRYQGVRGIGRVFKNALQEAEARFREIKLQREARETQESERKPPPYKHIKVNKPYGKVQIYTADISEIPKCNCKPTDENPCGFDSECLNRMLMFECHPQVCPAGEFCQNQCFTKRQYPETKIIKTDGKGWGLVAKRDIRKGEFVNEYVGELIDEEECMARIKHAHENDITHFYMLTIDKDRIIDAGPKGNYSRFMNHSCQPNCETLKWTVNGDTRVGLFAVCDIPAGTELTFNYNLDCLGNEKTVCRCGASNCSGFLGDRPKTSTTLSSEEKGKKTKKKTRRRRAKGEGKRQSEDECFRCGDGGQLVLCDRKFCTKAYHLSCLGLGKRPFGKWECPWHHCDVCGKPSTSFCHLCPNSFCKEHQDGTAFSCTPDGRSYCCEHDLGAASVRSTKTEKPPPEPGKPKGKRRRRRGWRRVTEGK
Description: Binding affinity to NSD2 PWWP1 domain (unknown origin) assessed as change in aggregation temperature at 400 uM by heating at 25 to 85 degC by differential static light scattering method

[2] = target: T2, Peregrin (Homo sapiens) (UniProt P55201); assay: Binding affinity to BRPF1 PWWP domain (unknown origin) assessed as aggregation temperature at 400 uM by heating at 25 to 85 degC by differential static light scattering method
T2 sequence (whole entry): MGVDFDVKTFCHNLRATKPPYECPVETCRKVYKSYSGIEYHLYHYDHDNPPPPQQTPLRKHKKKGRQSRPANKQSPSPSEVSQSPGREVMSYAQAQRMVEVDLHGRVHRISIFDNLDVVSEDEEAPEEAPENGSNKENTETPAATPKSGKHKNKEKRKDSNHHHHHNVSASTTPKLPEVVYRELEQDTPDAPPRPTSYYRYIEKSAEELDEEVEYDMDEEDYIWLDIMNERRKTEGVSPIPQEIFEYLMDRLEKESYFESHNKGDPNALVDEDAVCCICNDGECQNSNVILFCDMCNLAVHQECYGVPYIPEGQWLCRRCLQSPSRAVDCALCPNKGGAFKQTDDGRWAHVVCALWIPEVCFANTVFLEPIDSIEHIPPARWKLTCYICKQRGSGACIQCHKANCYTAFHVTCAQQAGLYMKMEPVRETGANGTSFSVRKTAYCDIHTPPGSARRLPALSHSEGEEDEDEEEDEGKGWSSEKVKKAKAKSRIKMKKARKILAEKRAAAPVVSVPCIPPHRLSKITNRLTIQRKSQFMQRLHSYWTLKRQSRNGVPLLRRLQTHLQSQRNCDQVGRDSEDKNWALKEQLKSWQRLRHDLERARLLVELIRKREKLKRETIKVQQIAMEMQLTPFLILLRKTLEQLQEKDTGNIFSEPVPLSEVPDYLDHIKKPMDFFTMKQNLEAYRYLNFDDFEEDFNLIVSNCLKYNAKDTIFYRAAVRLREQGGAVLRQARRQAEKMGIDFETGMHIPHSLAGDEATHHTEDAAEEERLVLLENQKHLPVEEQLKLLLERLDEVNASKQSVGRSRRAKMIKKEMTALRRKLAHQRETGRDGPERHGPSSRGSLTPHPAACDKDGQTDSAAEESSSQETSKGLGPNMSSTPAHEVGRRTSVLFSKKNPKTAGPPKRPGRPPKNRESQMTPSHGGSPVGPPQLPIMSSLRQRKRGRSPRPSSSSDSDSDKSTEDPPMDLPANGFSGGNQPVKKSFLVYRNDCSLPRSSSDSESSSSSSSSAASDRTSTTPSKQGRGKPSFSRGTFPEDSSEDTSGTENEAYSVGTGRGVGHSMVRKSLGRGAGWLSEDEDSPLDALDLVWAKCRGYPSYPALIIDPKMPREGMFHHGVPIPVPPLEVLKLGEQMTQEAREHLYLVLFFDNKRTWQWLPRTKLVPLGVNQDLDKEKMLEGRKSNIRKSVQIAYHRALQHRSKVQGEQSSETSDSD

## N#Cc1ccc(C(C(N)=O)N2CCC2c2ccc(Cl)cc2)cc1 (configuration not stated)
[1]
  deltaT: 3.9 °C
[2]
  Activity: inactive
